Laboratory results taken from US7326538B2, “Binding proteins as biosensors” (Becton Dickinson and Company, priority 2002, dated 2008).

Key:
[1] = SPR glucose detection on immobilized GGBP sensor surfaces (BIACORE); assay type: binding; settings: for glucose detection by SPR using thiol-coupled mutants (FIG. 8): 0.1 mM and 1 mM glucose, thiol-coupled surfaces; for SPR Signal, Buffer: running buffer injection
Experimental: Proteins were immobilized onto a carboxymethyldextran (CM5) sensor surface (BIACORE) by thiol coupling using standard thiol coupling chemistry with a flow rate of 5 μl/min in 10 mM HEPES pH 7.4, 150 mM NaCl, 0.05% BIACORE Surfactant P20 (BIAcore) (HBS-P) running buffer. The sensor surface was activated with a 2 minute pulse of […] (EDC/NHS) followed by a 4 min pulse of 80 mM 2-(2-pyridinyldithio) ethaneamine (PDEA), 0.1 M sodium borate pH 8.5, E149C GGBP (1.8 mg/ml) was injected at a 1:50 dilution in 10 mM sodium acetate pH 4.5 for various times. Carbonic anhydrase 11 (5 mg/ml) was injected at 1:10 dilution in 10 mM sodium acetate pH 4.5 for 20 minutes. G74C GGBP (2.6 mg/ml) was injected at 1:50 dilution in 10 mM sodium acetate pH 4.5 for 12 minutes. A213C GGBP (0.6 mg/ml) was injected at 1:20 dilution in 10 mM sodium acetate pH 4.5 for 2 4 minutes. A 4 minute pulse of 50 mM cysteine, 1 M NaCl, 0.1 M sodium formate pH 4.3 was used to quench the reaction and remove non-specifically bound protein from the surface. Following immobilization, the protocol DESORB (0.5% SDS, 50 mM glycine pH 9.5) was run to remove protein aggregates from the system. Surfaces of 3000 RU (E149C GGBP), 4500 RU (carbonic anydrase), 2000 RU (A213C GGBP), and 4000 RU (G74C GGBP) were used for experiments.
Proteins were immobilized onto a Carboxymethyldextran (CM5) sensor surface (BIAcore) by amine coupling using standard amine coupling chemistry with a flow rate of 5 μl/min in HBS-P running buffer. The surface was activated with a 7 minute pulse of EDC/NHS. Proteins (WT GGBP, 2 mg/ml; E149C GGBP, 1.8 mg/ml) were injected at a 1:50 dilution in 10 mM sodium acetate pH 4.5 for 20 minutes. A pulse of 1 M ethanolamine pH 8.0 was injected to quench the reaction and remove nonspecifically bound protein. Surfaces of 4800 RU for E149C and 2400 RU for wild type GGBP were used for experiments.
Thiol coupling of E149C GGBP on C1 surfaces was carried out as follows. E149C GGBP was immobilized on a carboxymethyl (C1) chip using standard thiol coupling chemistry with a flow rate of 5 μl/min in HBS-P running buffer. The C1 surface was activated with a 4 min pulse of EDC/NHS followed by a 4 min pulse of 80 mM PDEA of 0.1 M sodium borate pH 8.5. E149C GGBP (1.8 mg/ml) was injected at a 1:2 dilution in 10 mM sodium acetate pH 4.5 for 50 minutes at a flow rate of 1 μl/min. A 7 minute pulse of 50 mM cysteine, 1M NaCl, 0.1 M sodium formate pH 4.3 was used to quench the reaction and remove non-specifically bound protein from the surface. A surface of 9000 RU was used for experiments.
Amine coupling of E149C GGBP on C1 surfaces. E149C GGBP was immobilized on a C1 chip using standard amine coupling chemistry with a flow rate of 5 μl/min in HBS-P running buffer. The surface was activated with a 7 minute pulse of EDC/NHS. E149C GGBP (1.8 mg/ml) was injected at a 1:2 dilution in 1 0 MM sodium acetate pH 4.5 for 50 minutes at a flow rate of 1 μl/min. A pulse of 1 M ethanolamine pH 8.0 was injected to quench the reaction and remove nonspecifically bound protein.
All glucose injections were performed at 25° C. in the appropriate running buffer for the specific experiment. Glucose injections were 10 μl at a flow rate of 10 μl/min (1 minute contact time). Injections of different glucose concentrations were repeated three times and alternated between the protein and blank surfaces. The protein surface was regenerated by washing of the flow channel with running buffer followed by a running buffer injection. Sensorgrams were either blank surface subtracted or were double referenced by first subtracting the glucose injection over a blank surface from the corresponding glucose injection on the protein surface. A buffer injection over the blank surface was then subtracted from a buffer injection over the protein surface. The final sensorgram was obtained by subtracting the normalized buffer injection from the normalized glucose injection. […]

[2] = SPR response of thiol coupled E149C GGBP to a panel of sugars; assay type: binding; settings: sugars at 100 μM, 3000 RU thiol-coupled surface
Experimental: All glucose injections were performed at 25° C. in the appropriate running buffer for the specific experiment. Glucose injections were 10 μl at a flow rate of 10 μl/min (1 minute contact time). Injections of different glucose concentrations were repeated three times and alternated between the protein and blank surfaces. The protein surface was regenerated by washing of the flow channel with running buffer followed by a running buffer injection. Sensorgrams were either blank surface subtracted or were double referenced by first subtracting the glucose injection over a blank surface from the corresponding glucose injection on the protein surface. A buffer injection over the blank surface was then subtracted from a buffer injection over the protein surface. The final sensorgram was obtained by subtracting the normalized buffer injection from the normalized glucose injection.
FIG. 2 depicts the specificity of E149C mutated GGBP to bind glucose preferentially. The indicated sugars were injected at a concentration of 100 μM on a 3000 RU thiol-coupled E149C surface. Double referenced sensorgrams were averaged during the time frame corresponding between 10 and 50 seconds during the injection. Each injection was done in triplicate.

[3] = amine coupling, CM5 chip, 100 μM glucose
[4] = thiol coupling, CM5 chip, 100 μM glucose, blank subtracted or double referenced

## A213C GGBP H6: GGBP with cysteine substituted for alanine at position 213, histidine tag
[1]
  glucose detection by SPR using thiol-coupled mutants (FIG. 8): signal-enhanced glucose detection
[1]; thiol coupling, CM5 chip
  SPR Signal, Buffer: −0.5 ± 0.4 RU
[1]; thiol coupling, CM5 chip, 1 mM glucose
  SPR Signal at Saturating Amounts of Glucose: 119 ± 0.4/ RU

## E149C GGBP H6: E. coli GGBP with cysteine substituted for glutamic acid at position 149, C-terminal six-histidine tag
[1]; 100 μM glucose, 2000 RU amine-coupled surface
  glucose detection on C1 surface (FIG. 7): does not result in glucose binding
[1]; 100 μM glucose, 9000 RU thiol-coupled protein surface
  glucose detection on C1 surface (FIG. 6): Glucose detection is evident
[1]; 100 µM glucose, one minute injection
  signal upon glucose binding, thiol-coupling in comparison to amino coupling or buffer only (FIG. 1): significantly enhanced signal
[1]; amine coupling, C1 chip, 1 mM glucose
  SPR Signal at Saturating Amounts of Glucose: −4.9 ± 5.3/ RU
[1]; [3]
  SPR Signal at Saturating Amounts of Glucose: 2.1 ± 5.5/ RU
[1]; amine coupling, C1 chip
  SPR Signal, Buffer: 0.4 ± 3.1 RU
[1]; amine coupling, CM5 chip
  SPR Signal, Buffer: 1.4 ± 3.1 RU
[1]; thiol coupling, C1 chip
  SPR Signal, Buffer: 0.8 ± 1.5 RU
[1]; thiol coupling, CM5 chip
  SPR Signal, Buffer: −0.5 ± 4.3 RU
[1]; thiol coupling, CM5 chip, denatured surface (neg control)
  SPR Signal, Buffer: −1.4 ± 2.2 RU
[1]; thiol coupling, CM5 chip, refolded protein surface
  SPR Signal, Buffer: −3.7 ± 1.5 RU
[1]; thiol coupling, C1 chip, 100 μM glucose
  SPR Signal at Saturating Amounts of Glucose: 10.2 ± 2.8/ RU
[1]; [4]
  SPR Signal at Saturating Amounts of Glucose: 17.7 ± 0.5/ RU
[1]; thiol coupling, CM5 chip, denatured surface (neg control), 100 μM glucose
  SPR Signal at Saturating Amounts of Glucose: 0 ± 4.1/ RU
[1]; thiol coupling, CM5 chip, refolded protein surface, 100 μM glucose
  SPR Signal at Saturating Amounts of Glucose: 11.4 ± 1.0/ RU
[1]; thiol-coupled surface, 1 M guanidine HCl overnight, HBS-EP injections
  glucose signal after denaturation (FIG. 3): did not result in glucose signals
[1]; thiol-coupled surface, HBS-P and 1.5 mM CaCl2, continuous flow overnight
  glucose signal after renaturation (FIG. 3): Glucose signals were restored
[2]
  specificity to bind glucose preferentially over other sugars (FIG. 2): glucose binds more readily

## G74C GGBP H6: GGBP with cysteine substituted for glycine at position 74, histidine tag
[1]
  glucose detection by SPR using thiol-coupled mutants (FIG. 8): signal-enhanced glucose detection
[1]; thiol coupling, CM5 chip
  SPR Signal, Buffer: 2.7 ± 3.6 RU
[1]; [4]
  SPR Signal at Saturating Amounts of Glucose: 22.3 ± 0.2/ RU

## K137C GGBP H6: GGBP with cysteine substituted for lysine at position 137, histidine tag
[1]; thiol coupling, CM5 chip
  SPR Signal, Buffer: 4.8 ± 3.2 RU
[1]; [4]
  SPR Signal at Saturating Amounts of Glucose: 9.5 ± 4.2/ RU

## WT GGBP H6: wild type E. coli Galactose/Glucose Binding Protein with histidine tag, non-thiol negative control [reference compound]
[1]; [3]
  SPR Signal at Saturating Amounts of Glucose: 5.9 ± 2.3/ RU
[1]; amine coupling, CM5 chip
  SPR Signal, Buffer: 2.9 ± 1.5 RU
